The test system of assay [1] is human spermatozoa. As to the kind of experiment: Sperm motility (immobilizing effect) assay in selected human spermatozoa (swim up). It is filed as cell-based. As to the method:
The spermicidal effect of the wild-type peptide and the constructed analog was assayed by assessing the sperm motility in human spermatozoa. For this, 15 mL of HTF-0.1% BSA medium (0.02 g BSA in 20 mL HTF) and 3 mL of HTF-1% BSA medium (0.04 g BSA in 4 mL HTF) were placed in an assay tube and incubated at 37° C. Subsequently, a sample of 2.6 mL of human semen was incubated during 25 minutes until liquefaction. Once liquefied, the sample was divided into 3 15-mL conical tubes with 2 mL of warm HTF-0.1% BSA in each tube. 860 μL of liquefied semen were vertically added to the bottom of each tube, gently pipetting to homogenize the mixture avoiding the formation of bubbles. Large clots were removed. Subsequently, the sample was centrifuged for 8 minutes at 1,800 rpm and the supernatant was discarded by touching only the surface of the medium with the pipette tip just on the tube walls and pipetting out the liquid. […] Then, spermatozoa were counted, reaching values around 10 million of selected spermatozoa per mL (10×10^6/mL). Different concentrations of the total venom and the different venom fractions obtained in the chromatographic purification, as well as the constructed analog peptide, were applied to samples of the spermatozoid previously selected and counted and were incubated in HTF medium for 45 minutes at 37° C. […]

Assay [2] deals with human spermatozoa. The assay can be described thus: Hamster oocyte penetration assay (Yanagimachi et al. 1976), fertilizing capacity of human spermatozoa. The format is cell-based. The note with it: agent at its IC50 from the sperm motility curve; n=15 oocytes per group; versus control. The method, then: The decrease of the fertilizing capacity of human spermatozoa was assayed using penetration assays in hamster oocytes according to the protocol initially described by Yanagimachi et al. (1976). Briefly, golden hamster oocytes were collected; their […] was removed, and oocytes were subsequently incubated with previously capacitated human spermatozoa at a concentration of 10^7 spermatozoa/ml. The incubation was prolonged for 3-6 hours. […] The oocytes were observed using phase contrast microscopy and were only considered to have been penetrated by spermatozoa when they contained a head in decondensation stage or a male pronucleus inside their cytoplasm.

On to “20-amino acid linear analog of the venom peptide, cysteine 43 replaced by alanine; SLAKTNCFTTEYFQHCVKDL [Ac-[Ala^43]-ATX41-60-NH2]”, for which the “spermatozoids affected at maximal doses” value with human spermatozoa [1] (maximal doses (FIG. 2)) is given as 100%. The “IC50 of the immobilizing effect (spermatozoa with no progressive linear movement)” value in the assay on human spermatozoa [1] (selected human spermatozoa (swim up), incubated 45 minutes in HTF medium, 37° C.) came to 39.81 µg/mL. Also, the “decrease in the fertilizing capacity of spermatozoa” value in the assay with human spermatozoa [2] turned out to be 82±0.3%.

The values are drawn from patent US8980842B2, “Contraceptive peptides derived from the venom of the spider Latrodectus mirabilis, nucleotide sequences to transform a microorganism to produce said peptides; methods to obtain the peptides; pharmaceutical compositions containing thereof and use thereof” (Universidad de la Frontera, priority 2010, dated 2015).
